Results from US12030879B2, “Sulfonyl acetamides as NLRP3 inhibitors” (Inflazome Limited, priority 2018, dated 2024).

target: T1, NLRP3 (Homo sapiens, UniProt Q96P20); test: THP-1 cells pyroptosis assay; format: cell-based; settings: LPS 1 μg/ml, compound 3 hrs, nigericin 5 μM 1 hr, resazurin readout
T1 construct: Seed THP-1 cells (25,000 cells/well) containing 1.0 μg/ml LPS in 40 μl of RPMI medium; host or cells: THP-1 cells
Summary of the method: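 LPS-primed (1 μg/ml) THP-1 cells in serum-free RPMI were treated 3 h with compound (8-point half-log, top 10 μM; 0.1% DMSO), then with 5 μM nigericin for 1 h at 37°C. Viability was read by 100 μM resazurin (ex 560/em 590 nm) after 1–2 h. IC50 came from 4-parameter nonlinear regression.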

T1 sequence (Q96P20 whole entry): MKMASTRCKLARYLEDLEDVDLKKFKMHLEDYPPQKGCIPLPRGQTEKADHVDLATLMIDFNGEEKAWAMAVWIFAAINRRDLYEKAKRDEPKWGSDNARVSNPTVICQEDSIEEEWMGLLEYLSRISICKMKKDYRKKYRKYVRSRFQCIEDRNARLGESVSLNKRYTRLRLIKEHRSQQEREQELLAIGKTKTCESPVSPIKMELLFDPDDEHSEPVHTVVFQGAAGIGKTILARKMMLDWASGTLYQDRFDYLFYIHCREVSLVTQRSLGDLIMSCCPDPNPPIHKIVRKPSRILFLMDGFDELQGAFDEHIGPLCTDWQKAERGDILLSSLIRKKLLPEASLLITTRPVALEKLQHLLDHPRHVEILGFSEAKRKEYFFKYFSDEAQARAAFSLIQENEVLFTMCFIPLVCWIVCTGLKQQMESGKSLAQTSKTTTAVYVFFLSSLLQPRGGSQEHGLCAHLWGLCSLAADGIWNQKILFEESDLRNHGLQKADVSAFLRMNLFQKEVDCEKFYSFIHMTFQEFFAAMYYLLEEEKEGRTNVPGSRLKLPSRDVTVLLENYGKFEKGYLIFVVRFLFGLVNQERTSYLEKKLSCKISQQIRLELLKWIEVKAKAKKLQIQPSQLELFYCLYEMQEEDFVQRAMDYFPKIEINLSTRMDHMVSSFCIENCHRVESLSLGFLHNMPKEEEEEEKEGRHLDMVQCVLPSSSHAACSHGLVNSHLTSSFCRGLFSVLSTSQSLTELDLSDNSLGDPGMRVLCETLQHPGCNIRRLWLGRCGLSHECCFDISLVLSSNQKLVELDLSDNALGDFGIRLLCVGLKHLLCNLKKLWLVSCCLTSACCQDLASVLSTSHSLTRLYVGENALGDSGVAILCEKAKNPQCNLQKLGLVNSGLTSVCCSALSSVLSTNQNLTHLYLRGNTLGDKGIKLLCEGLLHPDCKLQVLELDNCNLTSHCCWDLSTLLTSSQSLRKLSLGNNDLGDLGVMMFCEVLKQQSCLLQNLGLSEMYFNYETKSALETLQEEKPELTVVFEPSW

Q: For COc1cc(-c2cc(F)cc(C(C)C)c2CC(=O)NS(=O)(=O)c2ccc(C(C)(C)O)c(Cl)c2)ccn1 [Example 98, N-((3-Chloro-4-(2-hydroxypropan-2-yl)phenyl)sulfonyl)-2-(4-fluoro-2-isopropyl-6-(2-methoxypyridin-4-yl)phenyl)acetamide], which IC50 is on record?
A: ≤ 0.5 µM

Q: COc1ccncc1-c1cc(F)cc(C(C)C)c1CC(=O)NS(=O)(=O)c1cc(C(C)(C)O)cs1 [Example 99, 2-(4-Fluoro-2-isopropyl-6-(4-methoxypyridin-3-yl)phenyl)-N-((4-(2-hydroxypropan-2-yl)thiophen-2-yl)sulfonyl)acetamide] was tested. Which IC50 did it give?
A: ≤ 0.5 µM

Q: For Cc1cnccc1-c1cc(F)cc(C(C)C)c1CC(=O)NS(=O)(=O)c1cc(C(C)(C)O)cs1 [Example 100, 2-(4-Fluoro-2-isopropyl-6-(3-methylpyridin-4-yl)phenyl)-N-((4-(2-hydroxypropan-2-yl)thiophen-2-yl)sulfonyl)acetamide], which IC50 is on record?
A: ≤ 0.5 µM

Q: Which IC50 does the source give for COc1cc(-c2cc(F)cc(C(C)C)c2CC(=O)NS(=O)(=O)c2ccc(Cl)c(C)c2)ccn1 [Example 101, N-((4-Chloro-3-methylphenyl)sulfonyl)-2-(4-fluoro-2-isopropyl-6-(2-methoxypyridin-4-yl)phenyl)acetamide] here?
A: ≤ 0.5 µM

Q: For COc1cc(-c2cc(F)cc(C(C)C)c2CC(=O)NS(=O)(=O)c2ccc(O)nc2C)ccn1 [Example 102, 2-(4-Fluoro-2-isopropyl-6-(2-methoxypyridin-4-yl)phenyl)-N-((6-hydroxy-2-methylpyridin-3-yl)sulfonyl)acetamide], which IC50 is on record?
A: ≤ 10 µM

Q: How did the IC50 turn out when COc1cc(-c2cc(F)cc(C(C)C)c2C(F)C(=O)NS(=O)(=O)c2cc(C(C)(C)O)co2)ccn1 (stereo not shown) [Example 103, 2-Fluoro-2-(4-fluoro-2-isopropyl-6-(2-methoxypyridin-4-yl)phenyl)-N-((4-(2-hydroxypropan-2-yl)furan-2-yl)sulfonyl)acetamide] was run?
A: ≤ 10 µM

Q: For COc1cc(-c2cc(F)cc(C(C)C)c2C(F)C(=O)NS(=O)(=O)c2cc(C(C)(C)O)cs2)ccn1 (stereo not shown) [Example 104, 2-Fluoro-2-(4-fluoro-2-isopropyl-6-(2-methoxypyridin-4-yl)phenyl)-N-((4-(2-hydroxypropan-2-yl)thiophen-2-yl)sulfonyl)acetamide], which IC50 is on record?
A: ≤ 5 µM

Q: COc1cc(-c2ccc3c(c2CC(=O)NS(=O)(=O)c2ncc(C(C)(C)O)s2)CCC3)ccn1 [Example 105, N-((5-(2-Hydroxypropan-2-yl)thiazol-2-yl)sulfonyl)-2-(5-(2-methoxypyridin-4-yl)-2,3-dihydro-1H-inden-4-yl)acetamide] was tested. Which IC50 did it give?
A: ≤ 10 µM

Q: For COc1cc(-c2cc(F)cc(C(C)C)c2CC(=O)NS(=O)(=O)c2ncc(C(C)(C)O)s2)ccn1 [Example 106, 2-(4-Fluoro-2-isopropyl-6-(2-methoxypyridin-4-yl)phenyl)-N-((5-(2-hydroxypropan-2-yl)thiazol-2-yl)sulfonyl)acetamide], which IC50 is on record?
A: ≤ 5 µM

Q: Which IC50 does the source give for COc1cc(-c2ccc3c(c2CC(=O)NS(=O)(=O)c2cnc(C(C)(C)O)s2)CCC3)ccn1 [Example 107, N-((2-(2-Hydroxypropan-2-yl)thiazol-5-yl)sulfonyl)-2-(5-(2-methoxypyridin-4-yl)-2,3-dihydro-1H-inden-4-yl)acetamide] here?
A: ≤ 5 µM

Q: Which IC50 does the source give for COc1cc(-c2cc(F)cc(C(C)C)c2CC(=O)NS(=O)(=O)c2cnc(C(C)(C)O)s2)ccn1 [Example 108, 2-(4-Fluoro-2-isopropyl-6-(2-methoxypyridin-4-yl)phenyl)-N-((2-(2-hydroxypropan-2-yl)thiazol-5-yl)sulfonyl)acetamide] here?
A: ≤ 5 µM

Q: COc1cc(-c2cc(F)cc(C(C)C)c2CC(=O)NS(=O)(=O)c2ccccc2)ccn1 [Example 111, 2-(4-Fluoro-2-isopropyl-6-(2-methoxypyridin-4-yl)phenyl)-N-(phenylsulfonyl)acetamide] was tested. Which IC50 did it give?
A: ≤ 5 µM

Q: How did the IC50 turn out when COc1cc(-c2cc(F)cc(C(C)C)c2CC(=O)NS(=O)(=O)c2ccc(C)cc2)ccn1 [Example 112, 2-(4-Fluoro-2-isopropyl-6-(2-methoxypyridin-4-yl)phenyl)-N-tosylacetamide] was run?
A: ≤ 5 µM
